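Following 48 hours of exposure in 96-well plates, responses at five concentrations were used to interpolate endpoints linearly. Here, GI50 denotes the concentration required for 50% inhibition of growth. TGI is the concentration that stops growth completely.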
Experiments:
Experiment in all cases: NCI tumour cell line growth inhibition, 48 h
SF-295 CNS = system: SF-295 CNS
HOP-62 NSCLC = system: HOP-62 NSCLC
HOP-92 NSCLC = system: HOP-92 NSCLC
NCI-H226 lung = system: NCI-H226 lung
SNB-19 CNS = system: SNB-19 CNS
NCI-H522 lung = system: NCI-H522 lung
SW-620 colon = system: SW-620 colon
SK-OV-3 ovarian = system: SK-OV-3 ovarian
MALME-3M melanoma = system: MALME-3M melanoma
MDA-MB-435 = system: MDA-MB-435

Structure (SMILES)	TGI (SF-295 CNS)	TGI (HOP-62 NSCLC)	TGI (HOP-92 NSCLC)	TGI (NCI-H226 lung)	TGI (SNB-19 CNS)	TGI (NCI-H522 lung)	TGI (SW-620 colon)	TGI (SK-OV-3 ovarian)	TGI (MALME-3M melanoma)	GI50 (SF-295 CNS)	GI50 (HOP-62 NSCLC)	GI50 (MDA-MB-435)	TGI (MDA-MB-435)	GI50 (NCI-H226 lung)	GI50 (SNB-19 CNS)	GI50 (NCI-H522 lung)	GI50 (SW-620 colon)	GI50 (HOP-92 NSCLC)	GI50 (SK-OV-3 ovarian)	GI50 (MALME-3M melanoma)
Cc1ccc(-c2nc(SCC(=O)O)n[nH]2)cc1	> 100 µM	> 100 µM	> 100 µM	> 100 µM	> 100 µM	> 100 µM	> 100 µM	> 100 µM	> 100 µM	–	–	–	–	–	–	–	–	–	–	–
O=C(OCc1ccccc1)N1CCN(/[N+]([O-])=N/Oc2ccc([N+](=O)[O-])cc2[N+](=O)[O-])CC1	49.4 µM	28 µM	–	26.3 µM	35.8 µM	> 100 µM	> 100 µM	–	–	21.5 µM	12.3 µM	4.93 µM	19.5 µM	3.55 µM	13.6 µM	3.66 µM	3.79 µM	–	–	–
Cc1ccc(NC(=O)c2cccc([N+](=O)[O-])c2O)c([N+](=O)[O-])c1	32.8 µM	37.6 µM	45.4 µM	8.4 µM	82.9 µM	29.5 µM	39.5 µM	57.8 µM	30.8 µM	–	–	–	–	–	–	–	–	–	–	–
CCC[CH2][Sn]([CH2]CCC)([O]C(=O)c1cc(F)cc(F)c1)[O]C(=O)c1cc(F)cc(F)c1	2.62 µM	4.19 µM	2.49 µM	2.65 µM	2.83 µM	0.269 µM	1.81 µM	5.45 µM	1.75 µM	1.34 µM	2.39 µM	–	–	1.34 µM	1.5 µM	0.137 µM	0.564 µM	1.24 µM	2.45 µM	0.508 µM
COC1(OC)CC2C=C(S(=O)(=O)c3ccccc3)C1N(Cc1ccccc1)C2=O (configuration not stated)	> 100 µM	> 100 µM	95.5 µM	75.9 µM	> 100 µM	33.9 µM	76.8 µM	> 100 µM	> 100 µM	–	–	–	–	–	–	–	–	–	–	–
NC(=O)C1=NNc2ccccc2C(=O)N1c1ccccc1	> 100 µM	> 100 µM	–	> 100 µM	> 100 µM	> 100 µM	> 100 µM	> 100 µM	> 100 µM	–	–	–	> 100 µM	–	–	–	–	–	–	–
CCOC(=O)C(=O)Nc1ccc(C)cc1C	> 100 µM	> 100 µM	> 100 µM	> 100 µM	> 100 µM	> 100 µM	> 100 µM	> 100 µM	> 100 µM	–	–	–	–	–	–	–	–	–	–	–
CSC(C1c2ccccc2N(C)C2=NC(=O)N(C)C(=O)C21Cl)S(=O)(=O)c1ccc(C)cc1 (configuration not stated)	> 100 µM	> 100 µM	59.9 µM	> 100 µM	> 100 µM	30.8 µM	71.1 µM	> 100 µM	> 100 µM	–	–	–	–	–	–	–	–	–	–	–
COc1cc2c(cc1OC)-c1cc3cc(OC)c(OC)cc3n1CC2	> 100 µM	> 100 µM	> 100 µM	73.5 µM	95.8 µM	> 100 µM	> 100 µM	> 100 µM	72.6 µM	–	–	–	–	–	–	–	–	–	–	–
Cn1c2c(c3ccccc31)C1CCCCC1C1C(=O)NC(=O)C21 (configuration not stated)	> 100 µM	–	–	> 100 µM	> 100 µM	–	> 100 µM	> 100 µM	> 100 µM	–	–	–	–	–	–	–	–	–	–	–
COc1ccc(/C(=N/NC(=O)NN)C(c2ccc(OC)cc2)C2(O)CNc3c(Cl)cc(Cl)cc32)cc1 (configuration not stated)	> 100 µM	> 100 µM	> 100 µM	> 100 µM	> 100 µM	> 100 µM	> 100 µM	> 100 µM	> 100 µM	–	–	–	–	–	–	–	–	–	–	–
Brc1ccc(-c2nnc(-c3nn(-c4ccccc4)c4nc5ccccc5nc34)o2)cc1	> 100 µM	> 100 µM	> 100 µM	> 100 µM	> 100 µM	> 100 µM	> 100 µM	> 100 µM	–	–	–	–	–	–	–	–	–	–	–	–
COc1cc(/C=C/c2cc(/C=C/c3ccc(O)c(OC)c3)n(-c3c(C)cccc3C)c(=O)n2)ccc1O	–	2.76 µM	5.51 µM	7.59 µM	9.19 µM	1.04 µM	–	3.37 µM	–	–	1.08 µM	–	–	2.36 µM	2.38 µM	0.264 µM	–	2.07 µM	0.438 µM	–
COc1ccc(/C=C2\CCCCC2=O)cc1	> 100 µM	> 100 µM	–	–	–	–	> 100 µM	> 100 µM	–	–	–	–	–	–	–	–	–	–	–	–
O=S(O)CCCCCSSCCCCSSCCCCCS(=O)O	> 100 µM	> 100 µM	> 100 µM	–	> 100 µM	> 100 µM	> 100 µM	> 100 µM	86.6 µM	–	–	–	–	–	–	–	–	–	–	–
CC1C[C@H](OC(N)=O)C(C)CC1=O (some centres not stated)	> 100 µM	> 100 µM	> 100 µM	–	> 100 µM	–	> 100 µM	> 100 µM	> 100 µM	–	–	–	–	–	–	–	–	–	–	–
CN(C)c1ccc(N=Cc2c([O-])ccc3ccccc23)cc1.[C-]#[O+].[C-]#[O+].[Ir]	55 µM	> 100 µM	37.3 µM	33.1 µM	64.3 µM	18.6 µM	32.5 µM	> 100 µM	41.7 µM	20 µM	44.1 µM	–	–	15.2 µM	24.8 µM	5.7 µM	16.7 µM	17.2 µM	34.4 µM	20.7 µM

Source: PubChem BioAssay (NCI)
